Experimental data taken from patent US20240217957A1, “HETEROCYCLIC COMPOUND AND USE THEREOF” (TAKEDA PHARMACEUTICAL COMPANY LIMITED, priority 2022, published 2024).

Molecular target: T1, human OX2 receptor (Homo sapiens, UniProt O43614)
T1 construct: expressed in transfected cells
T1 sequence (O43614 1-444): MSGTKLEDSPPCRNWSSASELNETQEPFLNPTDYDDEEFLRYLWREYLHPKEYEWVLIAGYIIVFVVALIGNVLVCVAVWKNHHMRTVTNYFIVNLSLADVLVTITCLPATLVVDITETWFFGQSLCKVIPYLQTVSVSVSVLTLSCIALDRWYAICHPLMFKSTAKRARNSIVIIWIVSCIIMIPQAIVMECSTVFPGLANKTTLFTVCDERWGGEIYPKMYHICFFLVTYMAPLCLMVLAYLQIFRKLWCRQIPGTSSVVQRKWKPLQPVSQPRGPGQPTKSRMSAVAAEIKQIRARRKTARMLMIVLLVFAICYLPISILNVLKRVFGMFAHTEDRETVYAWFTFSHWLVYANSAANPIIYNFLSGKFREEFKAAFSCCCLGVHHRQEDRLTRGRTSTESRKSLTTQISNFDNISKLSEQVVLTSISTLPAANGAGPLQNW
Assay: Measurement of orexin type 2 receptor agonist activity (calcium fluorescence, Fluo-4 AM, FDSS)
Format: cell-based
Conditions: compound at 3 μM; CHO cells forcibly expressing human OX2 receptor; DMSO = 0%, 10 nM orexin A (human) = 100%
Procedure, shortened: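 Agonist response is expressed as % of the fluorescence change given by 10 nM human orexin A, with DMSO as 0%, read over 1 min 40 s on FDSS after compound addition. Cells: stable human OX2 (1-444) CHO-K1 clones, dye-loaded with Fluo-4 AM plus probenecid in HEPES-buffered HBSS with 0.1% BSA.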

| SMILES | OX2R agonist activity (3 μM, %) [%] |
| --- | --- |
| CS(=O)(=O)N[C@@H]1CN(C2=NOC(c3c(F)ccc(F)c3-c3c(F)cccc3F)C2)CC1(F)F (stereo partly drawn) [Example 136, N-{(3R)-4,4-difluoro-1-[5-(2′,3,6,6′-tetrafluoro[1,1'-biphenyl]-2-yl)-4,5-dihydro-1,2-oxazol-3-yl]pyrrolidin-3-yl}methanesulfonamide] | 114 |
| CS(=O)(=O)N[C@@H]1CN(C2=NOC(c3ccc(F)c(F)c3-c3c(F)cccc3F)C2)C[C@@H]1F (stereo partly drawn) [Example 137, N-{(3R,4S)-4-fluoro-1-[5-(2′,5,6,6′-tetrafluoro[1,1′-biphenyl]-2-yl)-4,5-dihydro-1,2-oxazol-3-yl]pyrrolidin-3-yl}methanesulfonamide] | 102 |
| CS(=O)(=O)N[C@@H]1CN(C2=NOC(c3c(F)cc(F)cc3-c3ncc(F)cc3F)C2)CC1(F)F (stereo partly drawn) [Example 138, N-[(3R)-1-{5-[2-(3,5-difluoropyridin-2-yl)-4,6-difluorophenyl]-4,5-dihydro-1,2-oxazol-3-yl}-4,4-difluoropyrrolidin-3-yl]methanesulfonamide] | 105 |
| CS(=O)(=O)N[C@@H]1CN(C2=NOC(c3c(F)cc(F)cc3-c3ncc(F)cc3F)C2)C[C@@H]1F (stereo partly drawn) [Example 139, N-[(3R,4S)-1-{5-[2-(3,5-difluoropyridin-2-yl)-4,6-difluorophenyl]-4,5-dihydro-1,2-oxazol-3-yl}-4-fluoropyrrolidin-3-yl]methanesulfonamide] | 94 |
| CS(=O)(=O)N[C@@H]1CN(C2=NOC(c3ccc(F)c(F)c3-c3c(F)cccc3F)C2)CC1(F)F (stereo partly drawn) [Example 140, N-{(3R)-4,4-difluoro-1-[5-(2′,5,6,6′-tetrafluoro[1,1′-biphenyl]-2-yl)-4,5-dihydro-1,2-oxazol-3-yl]pyrrolidin-3-yl}methanesulfonamide] | 89 |
| CS(=O)(=O)N[C@@H]1CN(C2=NOC(c3c(F)cccc3-c3c(F)cccc3F)C2)C[C@@H]1F (stereo partly drawn) [Example 141, N-{(3R,4S)-4-fluoro-1-[5-(2′,3,6′-trifluoro[1,1′-biphenyl]-2-yl)-4,5-dihydro-1,2-oxazol-3-yl]pyrrolidin-3-yl}methanesulfonamide] | 97 |
| CS(=O)(=O)N[C@@H]1CN(C2=NOC(CO)(c3ncc(Cl)cc3-c3c(F)cccc3F)C2)CC1(F)F (stereo partly drawn) [Example 142, N-[(3R)-1-{5-[5-chloro-3-(2,6-difluorophenyl)pyridin-2-yl]-5-(hydroxymethyl)-4,5-dihydro-1,2-oxazol-3-yl}-4,4-difluoropyrrolidin-3-yl]methanesulfonamide] | 102 |
| CCS(=O)(=O)N[C@@H]1CN(C2=NOC(c3ncc(Cl)cc3-c3c(F)cccc3F)C2)CC1(F)F (stereo partly drawn) [Example 143, N-[(3R)-1-{5-[5-chloro-3-(2,6-difluorophenyl)pyridin-2-yl]-4,5-dihydro-1,2-oxazol-3-yl}-4,4-difluoropyrrolidin-3-yl]ethanesulfonamide] | 109 |
| CS(=O)(=O)N[C@@H]1CN(C2=NOC(c3c(F)cc(F)cc3-c3c(F)cccc3F)C2)C[C@@H]1F (stereo partly drawn) [Example 144, N-{(3R,4S)-4-fluoro-1-[5-(2′,3,5,6′-tetrafluoro[1,1′-biphenyl]-2-yl)-4,5-dihydro-1,2-oxazol-3-yl]pyrrolidin-3-yl}methanesulfonamide] | 98 |
| Cc1cc(F)c(C2CC(N3C[C@@H](NS(C)(=O)=O)C(F)(F)C3)=NO2)c(-c2c(F)cc(F)cc2F)c1 (stereo partly drawn) [Example 145, N-{(3R)-4,4-difluoro-1-[5-(2′,3,4′,6′-tetrafluoro-5-methyl[1,1′-biphenyl]-2-yl)-4,5-dihydro-1,2-oxazol-3-yl]pyrrolidin-3-yl}methanesulfonamide] | 105 |
| Cc1cc(F)c(C2CC(N3C[C@@H](NS(C)(=O)=O)C(F)(F)C3)=NO2)c(-c2c(F)cccc2F)c1 (stereo partly drawn) [Example 146, N-{(3R)-4,4-difluoro-1-[5-(2′,3,6′-trifluoro-5-methyl[1,1′-biphenyl]-2-yl)-4,5-dihydro-1,2-oxazol-3-yl]pyrrolidin-3-yl}methanesulfonamide] | 102 |
| CS(=O)(=O)N[C@@H]1CN(C2=NOC(CF)(c3ncc(F)cc3-c3c(F)cc(F)cc3F)C2)CC1(F)F (stereo partly drawn) [Example 147, N-[(3R)-4,4-difluoro-1-{5-(fluoromethyl)-5-[5-fluoro-3-(2,4,6-trifluorophenyl)pyridin-2-yl]-4,5-dihydro-1,2-oxazol-3-yl}pyrrolidin-3-yl]methanesulfonamide] | 98 |
| O=S(=O)(CF)N[C@@H]1CN(C2=NOC(c3ncc(Cl)cc3-c3c(F)cccc3F)C2)CC1(F)F (stereo partly drawn) [Example 148, N-[(3R)-1-{5-[5-chloro-3-(2,6-difluorophenyl)pyridin-2-yl]-4,5-dihydro-1,2-oxazol-3-yl}-4,4-difluoropyrrolidin-3-yl]-1-fluoromethanesulfonamide] | 98 |
| CS(=O)(=O)N[C@@H]1CN(C2=NOC(CF)(c3ncccc3-c3c(F)cccc3F)C2)CC1(F)F (stereo partly drawn) [Example 150, N-[(3R)-1-{5-[3-(2,6-difluorophenyl)pyridin-2-yl]-5-(fluoromethyl)-4,5-dihydro-1,2-oxazol-3-yl}-4,4-difluoropyrrolidin-3-yl]methanesulfonamide] | 95 |
| CCS(=O)(=O)N[C@@H]1CN(C2=NOC(CF)(c3ncccc3-c3c(F)cccc3F)C2)CC1(F)F (stereo partly drawn) [Example 151, N-[(3R)-1-{5-[3-(2,6-difluorophenyl)pyridin-2-yl]-5-(fluoromethyl)-4,5-dihydro-1,2-oxazol-3-yl}-4,4-difluoropyrrolidin-3-yl]ethanesulfonamide] | 107 |
| CC1(c2ncc(Cl)cc2-c2ncc(F)cc2F)CC(N2C[C@@H](NS(C)(=O)=O)C(F)(F)C2)=NO1 (stereo partly drawn) [Example 152, N-{(3R)-1-[5-(5′-chloro-3,5-difluoro[2,3′-bipyridin]-2′-yl)-5-methyl-4,5-dihydro-1,2-oxazol-3-yl]-4,4-difluoropyrrolidin-3-yl}methanesulfonamide] | 107 |
| CS(=O)(=O)N[C@@H]1CN(C2=NOC(CF)(c3ncc(C(F)F)cc3-c3c(F)cccc3F)C2)CC1(F)F (stereo partly drawn) [Example 153, N-[(3R)-1-{5-[5-(difluoromethyl)-3-(2,6-difluorophenyl)pyridin-2-yl]-5-(fluoromethyl)-4,5-dihydro-1,2-oxazol-3-yl}-4,4-difluoropyrrolidin-3-yl]methanesulfonamide] | 96 |
| Cc1cc(F)c(C2CC(N3C[C@@H](NS(C)(=O)=O)C(F)(F)C3)=NO2)c(-c2ncc(F)cc2F)c1 (stereo partly drawn) [Example 154, N-[(3R)-1-{5-[2-(3,5-difluoropyridin-2-yl)-6-fluoro-4-methylphenyl]-4,5-dihydro-1,2-oxazol-3-yl}-4,4-difluoropyrrolidin-3-yl]methanesulfonamide] | 102 |
| CS(=O)(=O)N[C@@H]1CN(C2=NOC(c3c(F)cc(F)cc3-c3c(F)cccc3F)C2)CC1(F)F (stereo partly drawn) [Example 156, N-{(3R)-4,4-difluoro-1-[5-(2′,3,5,6′-tetrafluoro[1,1′-biphenyl]-2-yl)-4,5-dihydro-1,2-oxazol-3-yl]pyrrolidin-3-yl}methanesulfonamide] | 94 |
| CS(=O)(=O)N[C@@H]1CN(C2=NOC(CF)(c3ncccc3-c3c(F)cc(F)cc3F)C2)CC1(F)F (stereo partly drawn) [Example 157, N-[(3R)-4,4-difluoro-1-{5-(fluoromethyl)-5-[3-(2,4,6-trifluorophenyl)pyridin-2-yl]-4,5-dihydro-1,2-oxazol-3-yl}pyrrolidin-3-yl]methanesulfonamide] | 92 |
| CC1(c2ncc(F)cc2-c2c(F)cccc2F)CC(N2C[C@@H](NS(C)(=O)=O)C(F)(F)C2)=NO1 (stereo partly drawn) [Example 158, N-[(3R)-1-{5-[3-(2,6-difluorophenyl)-5-fluoropyridin-2-yl]-5-methyl-4,5-dihydro-1,2-oxazol-3-yl}-4,4-difluoropyrrolidin-3-yl]methanesulfonamide] | 100 |
| CS(=O)(=O)N[C@@H]1CN(C2=NOC(c3c(F)ccc(F)c3-c3c(F)cccc3F)C2)C[C@@H]1F (stereo partly drawn) [Example 159, N-{(3R,4S)-4-fluoro-1-[5-(2′,3,6,6′-tetrafluoro[1,1′-biphenyl]-2-yl)-4,5-dihydro-1,2-oxazol-3-yl]pyrrolidin-3-yl}methanesulfonamide] | 99 |
| CS(=O)(=O)N[C@@H]1CN(C2=NOC(c3c(F)cccc3-c3c(F)cccc3F)C2)CC1(F)F (stereo partly drawn) [Example 160, N-{(3R)-4,4-difluoro-1-[5-(2′,3,6′-trifluoro[1,1′-biphenyl]-2-yl)-4,5-dihydro-1,2-oxazol-3-yl]pyrrolidin-3-yl}methanesulfonamide] | 104 |
| Cc1ccc(C2(C)CC(N3C[C@@H](NS(C)(=O)=O)C(F)(F)C3)=NO2)c(-c2ncc(F)cc2F)c1 (stereo partly drawn) [Example 161, N-[(3R)-1-{5-[2-(3,5-difluoropyridin-2-yl)-4-methylphenyl]-5-methyl-4,5-dihydro-1,2-oxazol-3-yl}-4,4-difluoropyrrolidin-3-yl]methanesulfonamide] | 103 |
